Measurements as given in the Kinase Knowledgebase extract (Sharma et al. 2016).

Columns and labels:
EGFR (human) = EGFR (human) (UniProt P00533); conditions: a431
EGFR = EGFR (UniProt P00533); conditions: concentration not given here
Sequence of EGFR (P00533 whole entry, looked up): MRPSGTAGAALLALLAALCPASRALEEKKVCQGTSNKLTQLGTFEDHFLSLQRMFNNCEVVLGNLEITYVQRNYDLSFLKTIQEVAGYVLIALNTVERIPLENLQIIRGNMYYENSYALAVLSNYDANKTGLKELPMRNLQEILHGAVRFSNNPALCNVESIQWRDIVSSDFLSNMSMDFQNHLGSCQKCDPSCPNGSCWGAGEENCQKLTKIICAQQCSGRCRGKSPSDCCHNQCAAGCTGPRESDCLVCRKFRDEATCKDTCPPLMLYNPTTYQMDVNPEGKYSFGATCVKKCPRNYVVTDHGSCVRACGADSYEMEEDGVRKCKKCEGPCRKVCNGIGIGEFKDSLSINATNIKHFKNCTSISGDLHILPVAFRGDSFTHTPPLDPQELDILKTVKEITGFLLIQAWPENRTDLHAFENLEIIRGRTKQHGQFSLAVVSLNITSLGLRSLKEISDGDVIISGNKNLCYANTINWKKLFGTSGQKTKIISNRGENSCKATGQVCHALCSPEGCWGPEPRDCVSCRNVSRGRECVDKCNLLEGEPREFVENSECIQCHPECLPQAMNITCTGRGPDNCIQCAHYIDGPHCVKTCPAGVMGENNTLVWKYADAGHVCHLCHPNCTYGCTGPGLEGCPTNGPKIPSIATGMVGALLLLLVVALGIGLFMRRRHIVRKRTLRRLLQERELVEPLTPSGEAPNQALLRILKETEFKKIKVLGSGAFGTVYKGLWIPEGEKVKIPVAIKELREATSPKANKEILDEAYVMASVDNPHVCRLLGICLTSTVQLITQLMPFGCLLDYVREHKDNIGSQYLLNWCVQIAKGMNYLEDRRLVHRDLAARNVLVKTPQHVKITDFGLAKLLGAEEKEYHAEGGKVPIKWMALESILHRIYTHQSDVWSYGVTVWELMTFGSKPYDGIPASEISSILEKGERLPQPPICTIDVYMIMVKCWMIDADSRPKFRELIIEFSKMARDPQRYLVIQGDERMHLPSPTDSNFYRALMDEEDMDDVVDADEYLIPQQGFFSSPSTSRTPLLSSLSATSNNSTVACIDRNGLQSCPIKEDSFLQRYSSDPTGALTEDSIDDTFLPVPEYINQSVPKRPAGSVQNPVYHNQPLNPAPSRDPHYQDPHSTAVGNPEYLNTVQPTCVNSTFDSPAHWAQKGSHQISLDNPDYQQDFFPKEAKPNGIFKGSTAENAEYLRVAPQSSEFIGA

Sequence of EGFR (human) (P00533 whole entry, looked up): as above

| IC50 (EGFR (human)) [µM] | inhibition (EGFR) [%] | SMILES |
| --- | --- | --- |
| 460 | – | COc1cc(N)c(C(=N)Nc2cccc(Cl)c2)cc1OC |
| > 1000 | – | COc1cc(N)c(C(=O)Nc2ccccn2)cc1OC |
| – | 10 | COc1cc2ncnc(Nc3cccc(Cl)c3)c2cc1OC |
| 200 | < 50 | COc1cc(N)c(C(=N)Nc2ccc(F)c(Cl)c2)cc1OC |
| 920 | < 50 | COc1cc(N)c(C(=O)Nc2cccc(Br)c2)c(OC)c1OC |
| 320 | – | COc1cccc(NC2=NC(C)(C)Nc3cc(OC)c(OC)cc32)c1 |
| > 1000 | – | COc1cc(N)c(C(=O)NC(C)c2ccccc2)cc1OC (stereo unspecified) |
| > 1000 | – | COc1cc(N)c(C(=O)Nc2ccncc2)cc1OC |
| > 1000 | – | COc1cc(N)c(C(=O)Nc2ccc(F)c(Cl)c2)cc1OC |
| 130 | – | COc1cc2c(cc1OC)C(Nc1cccc(Br)c1)=NC(C)(C)N2 |
| 300 | – | COc1cc(N)c(C(=N)Nc2cccc(Br)c2)cc1OC |
| 340 | – | COc1cc(N)c(C(=O)Nc2cccc(Br)c2)cc1OC |
| > 1000 | – | COc1cc(N)c(C(=O)Nc2cccnc2)cc1OC |
| 90 | – | COc1cc2c(cc1OC)C(Nc1ccc(F)c(Cl)c1)=NC(C)(C)N2 |
| 470 | – | COc1cc(N)c(C(=O)Nc2cccc(C(F)(F)F)c2)cc1OC |
| 200 | – | COc1cc2c(cc1OC)C(Nc1cccc(Cl)c1)=NC(C)(C)N2 |
| 200 | – | COc1cccc(NC(=O)c2cc(OC)c(OC)cc2N)c1 |
| > 1000 | – | COc1cc(N)c(C(=O)NC2CCCCC2)cc1OC |
| 340 | – | COc1cccc(NC(=N)c2cc(OC)c(OC)cc2N)c1 |
